From publication PMC12643354, “From Oxygen to Tellurium: The Impact of the Chalcogen on Nucleophilicities and Basicities of Isochalcogenourea Catalysts” (Angewandte Chemie (International Ed. in English), 2025)
“And” between values parts separate entries of the source, which are not always exact repeats. Equal values may be shown once. Read-outs that look alike come from different tables or passages of the source.

Columns and labels:
[1] = cited from earlier work
[2] = Mayr nucleophilicity parameters N and sN (benzhydrylium methodology, Mayr-Patz equation); assay type: physicochemical; details: dichloromethane, 20 °C
Text: (1) Mayr-Patz Equation: lgk20^∘C=sN(N+E)
The MPE is a linear‐free‐energy relationship that characterizes electrophiles by the electrophilicity parameter E and nucleophiles by the solvent‐dependent parameters N (nucleophilicity) and s N (sensitivity toward changes in the electrophile reactivity). By using the MPE (Equation (1)), the construction of comprehensive nucleophilicity and electrophilicity scales becomes possible, which facilitate the comparison of various classes of Lewis base organocatalysts.^[ [110], [111], [112], [113], [114], [115], [116], [117], [118], [119], [120] ^]
In order to systematically investigate the influence of the chalcogen atom on the nucleophilicity of DHPB‐derived IChUs (Ch = O, S, Se, and Te), we utilized Mayr's benzhydrylium methodology.^[ [107] ^]
Figure 4 illustrates the linear correlations of the second‐order rate constants (lg k 2) with the electrophilicities E of Ar2CH^+ (18), which makes it possible to determine the Mayr nucleophilicity parameters N (and s N) for the DHPB‐derived IChUs IU3, ITU3, ISeU3, and ITeU3. […]
Figure 4 Linear correlations of second‐order rate constants (lg k 2) for the reactions of IU3, ITU3, ISeU3, and ITeU3 with Ar2CH^+ 18 (in dichloromethane at 20 °C) with the electrophilicities E of 18. The slopes of the linear correlations equal the nucleophile‐dependent sensitivity parameter s N. Intercepts on the abscissa reflect the nucleophilicity parameter N (N = –E at lg k 2 = 0).

[3] = Lewis basicity LB from equilibrium constants (photometric titrations) with benzhydrylium ions as reference Lewis acids; assay type: physicochemical; design: key: Mayr Lewis basicity scale; LB from K and reference LA via Eq. (3); details: in dichloromethane, 20 °C
Description: (a) Lewis basicity. Previously, the Mayr group established a series of benzhydrylium ions as C‐centered Lewis acid references to construct a Lewis basicity scale in dichloromethane. Substituting experimentally determined equilibrium constants K (at 20 °C) and reported Lewis acidities LA for the benzhydrylium ions (Figure 7) in Equation (3) enables one to calculate the Lewis basicity (LB) of a Lewis base.^[ [121], [127] ^] (3) lgK(20^∘C)=LA+LB
The reversibility of the formation of adducts 19 (Equation (4)), which was also apparent in the kinetics by significant positive intercepts in several of the k obs versus [IChU] plots (Supporting Information), provided the opportunity to probe the thermodynamics of the C‐N bond‐forming reactions of IChUs with benzhydrylium ions as the reference Lewis acids in more detail.^[ [95] ^] (4) IChU+Ar2CH^+(18)⇌Ar2CH-IChU^+(19)
By assuming the validity of the Beer–Lambert law for dilute solutions, equilibrium constants K (L mol^−1) were determined in photometric titrations according to Equation (5) from the initial absorbance (A 0) of the benzhydrylium ions 18 and the absorbance at equilibrium (A, Equation 5), that is, after addition of a certain amount of an IChU.^[ [109], [110], [111], [112], [113], [114], [115], [119] ^] (5) K=[19]/[18]IChU=A0−A/AIChU

[4] = dichloromethane, 20 °C; cited from earlier work
[5] = Mayr nucleophilicity parameters N and sN (benzhydrylium methodology, Mayr-Patz equation); assay type: physicochemical; details: 20 °C
[6] = in acetonitrile, ref SI [25]-[30]

Row | Structure (SMILES) | Nucleophile-specific sensitivity parameter sN [2] | Nucleophilicity parameter N [2] | Lewis basicity LB [3] | other results
1 | CN(C)c1cccc2cccc(N(C)C)c12 [Proton Sponge] | – | – | – | Literature pKa of indicators and acids ([1]; in DMSO, ref SI [31]-[36]): 7.47
2 | c1ccc([C@@H]2CN3C(=N2)[Te]c2ccccc23)cc1 [ITeU2, TeBTM] | 0.66 | 14.62 | 17.09 | –
3 | c1ccc([C@@H]2CCN3C(=N2)Sc2ccccc23)cc1 [ITU4, HBTM] | – | – | 13.43 | Nucleophilicity parameter N [4]: 13.45
4 | c1ccc(C2CN3CCSC3=N2)cc1 (centres unmarked) [ITU1, tetramisole, reference compound] | 0.68 | 13.86 | 15.50 | –
5 | c1ccc([C@@H]2CCN3C(=N2)[Se]c2ccccc23)cc1 [ISeU4, SeHBTM] | 0.67 | 14.42 | 14.03 | –
6 | Fc1ccc2c(c1)SC1=N[C@H](c3ccccc3)CN12 [F-ITU2, 7-F-BTM] | 0.66 | 13.45 and 13.46 | 14.18 | –
7 | CC(C)[C@@H]1CN2C(=N[C@@H]1c1ccccc1)[Se]c1ccccc12 [ISeU5, SeHyperBTM] | 0.58 | 16.11 | 14.75 | Nucleophile-specific sensitivity parameter sN ([5]; THF): 0.77; Nucleophilicity parameter N ([5]; THF): 14.19; Nucleophile-specific sensitivity parameter sN ([5]; acetonitrile): 0.57; Nucleophilicity parameter N ([5]; acetonitrile): 15.84
8 | O=C(O)c1ccc([N+](=O)[O-])cc1[N+](=O)[O-] [2,4-Dinitrobenzoic acid] | – | – | – | Literature pKa of indicators and acids ([1]; in DMSO, ref SI [31]-[36]): 6.5
9 | c1ccc(C2CN3CC[Se]C3=N2)cc1 (centres unmarked) [ISeU1, SeTM] | 0.60 | 15.26 | – | –
10 | CN(C)c1ccncc1 [4-(dimethylamino)pyridine] | – | – | – | Literature pKa of indicators and acids ([1]; in DMSO, ref SI [31]-[36]): 7.91; Literature pKa of indicators and acids [1, 6]: 17.95
11 | CC(C)[C@@H]1CN2C(=N[C@@H]1c1ccccc1)Sc1ccccc12 [ITU5, HyperBTM] | – | – | 14.12 | Nucleophilicity parameter N [4]: 14.96
12 | CC1(C)OC(=O)CC(=O)O1 [Meldrum’s acid] | – | – | – | Literature pKa of indicators and acids ([1]; in DMSO, ref SI [31]-[36]): 7.3
13 | COc1ccc2c(c1)SC1=N[C@H](c3ccccc3)CN12 [MeO-ITU2, 7-MeO-BTM] | 0.75 | 13.15 | 15.22 | –
14 | CC(C)[C@@H]1CN2C(=N[C@@H]1c1ccccc1)Oc1ccccc12 [IU5, OHyperBTM] | 0.73 | 13.01 | 12.42 | –
15 | c1ccc([C@@H]2CN3C(=N2)[Se]c2ccccc23)cc1 [ISeU2, SeBTM] | 0.63 | 14.27 | 15.23 | –
16 | c1ccc([C@@H]2CN3C(=N2)Sc2ccccc23)cc1 [ITU2, benzotetramisole] | 0.73 | 13.06 | 14.88 | –
17 | C1CCNC1 [Pyrrolidine] | – | – | – | Literature pKa of indicators and acids ([1]; in DMSO, ref SI [31]-[36]): 11.06; Literature pKa of indicators and acids [1, 6]: 19.56
